For experiment [1], the target named is NA of influenza virus A PR/8/34 (Influenza A virus, UniProt P03468). The experiment in a line: biochemical. The arrangement: species or system influenza A virus H1N1 (A/PR/8/34). The conditions noted are these: 50% NA inhibitory concentration against influenza virus A PR/8/34.
The target in experiment [2] is NA of influenza virus A HK/68 (Influenza A virus, UniProt Q91MA2). Put plainly: biochemical. Set-up: species or system influenza A virus H3N2 (A/HongKong/68).
Experiment [3] deals with NA of influenza virus A/PR/8/34 (H1N1). The conditions noted are these: FL-based NA inhibition assay; cited from earlier work.
In experiment [4] the test system is NA of influenza virus A/Jinan/15/90 (H3N2). The conditions noted are these: FL-based NA inhibition assay; cited from earlier work.
Experiment [5] concerns NA of influenza virus B/Jiangsu/10/2003. The conditions noted are these: FL-based NA inhibition assay; cited from earlier work.
For a further experiment, the system named is NA of PR/8/34. The conditions noted are these: read-out: IC50 NA inhibition (PR/8/34); earlier study; cited from earlier work.

Each structure is given as a SMILES string.

Sequence of NA of influenza virus A HK/68 (Q91MA2 whole entry, looked up): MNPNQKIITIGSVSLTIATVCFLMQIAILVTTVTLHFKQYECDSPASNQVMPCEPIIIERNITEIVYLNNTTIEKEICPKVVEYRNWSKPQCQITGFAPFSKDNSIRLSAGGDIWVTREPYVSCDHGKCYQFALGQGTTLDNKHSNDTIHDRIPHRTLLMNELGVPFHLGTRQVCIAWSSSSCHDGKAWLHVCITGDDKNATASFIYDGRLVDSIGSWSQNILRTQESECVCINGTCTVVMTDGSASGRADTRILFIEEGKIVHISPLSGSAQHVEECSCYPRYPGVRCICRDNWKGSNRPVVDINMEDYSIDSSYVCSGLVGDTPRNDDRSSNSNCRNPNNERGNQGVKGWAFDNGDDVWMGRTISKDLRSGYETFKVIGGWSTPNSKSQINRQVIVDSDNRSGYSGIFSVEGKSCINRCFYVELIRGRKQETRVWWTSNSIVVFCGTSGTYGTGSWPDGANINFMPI
Sequence of NA of influenza virus A PR/8/34 (P03468 whole entry, looked up): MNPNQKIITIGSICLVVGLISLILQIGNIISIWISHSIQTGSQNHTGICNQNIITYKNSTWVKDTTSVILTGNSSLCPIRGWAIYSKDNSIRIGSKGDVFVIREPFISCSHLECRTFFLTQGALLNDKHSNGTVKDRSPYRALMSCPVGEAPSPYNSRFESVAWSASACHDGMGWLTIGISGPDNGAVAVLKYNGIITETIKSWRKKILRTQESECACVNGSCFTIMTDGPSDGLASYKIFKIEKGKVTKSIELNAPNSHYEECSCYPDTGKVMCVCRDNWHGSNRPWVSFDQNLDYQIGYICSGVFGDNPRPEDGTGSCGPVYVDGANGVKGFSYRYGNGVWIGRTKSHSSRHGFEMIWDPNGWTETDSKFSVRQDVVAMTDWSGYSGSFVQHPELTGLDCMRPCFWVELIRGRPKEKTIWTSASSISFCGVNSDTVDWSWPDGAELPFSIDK

Compound `CC(C)=CCc1c(O)ccc(C(=O)/C=C/c2cc(O)c3c(c2)C=CC(C)(C)O3)c1O` [Compound 1, (E)-1-[2,4-dihydroxy-3-(3-methyl-2-butenyl)phenyl]-3-(8-hydroxy-2,2-dimethyl-2H-1-benzopyran-6-yl)-2-propen-1-one] had an IC50 in experiment [1] of 250 nM.

For the compound `CC1(C)C=Cc2c(ccc3c2OCC(O)C3)O1` (stereo not drawn) [Compound 2, 3,4-dihydro-8,8-dimethyl-2H,8H-benzo[1,2-b:3,4-b′]dipyran-3-ol], the values for the IC50 in experiment [1] and in experiment [2] were 6470 ± 2590 nM and 12400 ± 4140 nM, respectively.

In turn, `COc1ccc(-c2coc3cc(O)ccc3c2=O)cc1` [Compound 3, biochanin B] yielded an IC50 in experiment [1] of 1370 ± 220 nM. Besides, the “activity against the NA of influenza virus A/PR/8/34 (H1N1)” value in experiment [3] was “weak activity”. The “activity against the NA of influenza virus A/Jinan/15/90 (H3N2)” value in experiment [4] is on record as “weak activity”. The “activity against the NA of influenza virus B/Jiangsu/10/2003” value in experiment [5] is listed as “weak activity”.

On to `CC(C)=CCc1cc([C@@H]2CC(=O)c3ccc(O)c(CC=C(C)C)c3O2)ccc1O` [Compound 4, glabrol], for which the values for the IC50 in experiment [1] and in experiment [2] were 510 nM and 3060 ± 1210 nM, respectively.

Consider `CC1(C)C=Cc2c(ccc(-c3coc4cc(O)ccc4c3=O)c2O)O1` [Compound 5, glabrone], for which the IC50 is 400 ± 170 nM in experiment [1] and 5340 ± 2290 nM in experiment [2].

With `CC1(C)C=Cc2c(ccc([C@@H]3COc4c(ccc5c4C=CC(C)(C)O5)C3)c2O)O1` [Compound 6, hispaglabridin B], the IC50 in experiment [1] amounted to 1110 ± 530 nM; in experiment [2], 2850 ± 1580 nM.

In the case of `O=C1C[C@@H](c2ccc(O)cc2)Oc2cc(O)ccc21` [Compound 10, liquiritigenin], in experiment [1], the IC50 came to 2070 ± 370 nM.

On to `O=C1C[C@@H](c2ccc(O[C@@H]3O[C@H](CO)[C@@H](O)[C@H](O)[C@H]3O)cc2)Oc2cc(O)ccc21` [Compound 11, liquiritin], for which the IC50 in experiment [1] was 83100 ± 17800 nM. Further, the “activity against the NA of influenza virus A/PR/8/34 (H1N1)” value in experiment [3] was “weak activity”. In addition, the “activity against the NA of influenza virus A/Jinan/15/90 (H3N2)” value in experiment [4] was “weak activity”. In addition, the “activity against the NA of influenza virus B/Jiangsu/10/2003” value in experiment [5] was “weak activity”.

In experiment [1], `O=C1C[C@@H](c2ccc(O)cc2)Oc2cc(O[C@@H]3O[C@H](CO)[C@@H](O)[C@H](O)[C@H]3O)cc(O)c21` [Compound 12, prunin] gave an IC50 of 3000 ± 460 nM.

In the case of `C=CCc1ccc(O)c(-c2ccc(O)c(CC=C)c2)c1` [Honokiol, honokiol, reference compound], the IC50 in experiment [1] was found to be 3010 nM.

As for `O=C(CCc1ccccc1)C[C@@H]1C[C@@H](c2ccccc2)c2c(cc(/C=C/c3ccccc3)oc2=O)O1` [Katsumadain A, katsumadain A], in the experiment on NA of PR/8/34, the IC50 is 1050 nM.
